Results as given in ChEMBL document CHEMBL1149475, “Evaluation of antitumor properties of novel saframycin analogs in vitro and in vivo” (Bioorg Med Chem Lett, 2006).
Blank lines part the entries; values can stand above or below the compound they belong to.

What was measured:
HCT-116 [1] = test: Antiproliferative activity against human HCT116 cells; format: functional
A-375 = test: Antiproliferative activity against human A375 cells; format: functional
HT-1080 = test: Antiproliferative activity against human HT1080 cells; format: functional
PC-3 = test: Antiproliferative activity against human PC3 cells; format: functional
[2] = Beta half life in Balb/C mouse at 0.5 mg/kg, iv and 2 mg/kg, ip; format: ADME, organism-based; conditions: in vivo, read-out: beta t1/2
A549 = test: Antiproliferative activity against human A549 cells; format: functional
MDA-MB-231 = test: Antiproliferative activity against human […] cells; format: functional
[3] = Bioavailability in Balb/C mouse at 0.5 mg/kg, iv and 2 mg/kg, ip; format: ADME, organism-based; conditions: in vivo
[4] = Cmax in Balb/C mouse at 0.5 mg/kg, iv and 2 mg/kg, ip; format: ADME, organism-based; conditions: in vivo
NALM-6 = test: Antiproliferative activity against human Nalm6 cells; format: functional
[5] = Alpha half life in Balb/C mouse at 0.5 mg/kg, iv and 2 mg/kg, ip; format: ADME, organism-based; conditions: in vivo
BXPC-3 = test: Antiproliferative activity against human BxPC3 cells; format: functional
CWR22R = test: Antiproliferative activity against human CWR22Rv1 cells; format: functional; conditions: 22Rv1
DLD-1 = test: Antiproliferative activity against human DLD1 cells; format: functional
HT-29 = test: Antiproliferative activity against human HT29 cells; format: functional
HeLa = test: Antiproliferative activity against human HeLa-S3 cells; format: functional
DU-145 = test: Antiproliferative activity against human DU145 cells; format: functional
[6] = AUC in Balb/C mouse at 0.5 mg/kg, iv and 2 mg/kg, ip; format: ADME, organism-based; conditions: plasma
NCI-H1299 = test: Antiproliferative activity against human H1299 cells; format: functional
[7] = Clearance in Balb/C mouse at 0.5 mg/kg, iv and 2 mg/kg, ip; format: ADME, organism-based; conditions: in vivo
P12-Ichikawa = test: Antiproliferative activity against human P12 cells; format: functional
Mus musculus [8] = test: Toxicity in mouse at 1.25 mg/kg, ip assessed as loss of body weight; format: organism-based; design: dose 1.25 mg/kg, route intraperitoneal; conditions: in vivo
HCT-116 [9] = test: Antitumor activity against human HCT116 cells transplanted in mouse at 1.25 mg/kg, ip; format: functional; conditions: HCT-116, ip, route intraperitoneal, read-out: TGI
Mus musculus [10] = test: Toxicity in mouse at 2.5 mg/kg, ip assessed as loss of body weight; format: organism-based; design: dose 2.5 mg/kg, route intraperitoneal; conditions: in vivo
HCT-116 [11] = test: Antitumor activity against human HCT116 cells transplanted in mouse at 2.5 mg/kg, ip; format: functional; conditions: HCT-116, ip, route intraperitoneal, read-out: TGI

GI50 (HCT-116 [1]): > 300 nM
SMILES: COc1c(C)c(OC)c2c(c1O)[C@@H]1[C@@H]3Cc4c(OC)c(C)c(OC)c(O)c4[C@H](CNC(=O)c4cc5cc(OC6CCOCC6)ccc5o4)N3C[C@H](C2)N1C

SMILES: COc1c(C)c(OC)c2c(c1O)[C@@H]1[C@@H]3Cc4c(OC)c(C)c(OC)c(O)c4[C@H](CNC(=O)c4ccc5ccccc5n4)N3[C@@H](C#N)[C@H](C2)N1C
GI50 (A-375): 1.3 nM | GI50 (HT-1080): 5 nM | GI50 (PC-3): 6.2 nM | half-life [2]: 17 min | GI50 (A549): 10.7 nM | GI50 (MDA-MB-231): 4.5 nM | bioavailability [3]: 46% | Cmax [4]: 1100 nM | GI50 (NALM-6): 0.6 nM | GI50 (HCT-116 [1]): 5.8 nM | half-life [5]: 3.5 min | GI50 (BXPC-3): 5.8 nM | GI50 (CWR22R): 1.1 nM | GI50 (DLD-1): 8.1 nM | GI50 (HT-29): 7.5 nM | GI50 (HeLa): 6.6 nM | GI50 (DU-145): 6.9 nM | AUC [6]: 0.167 µM·h | GI50 (NCI-H1299): 6.2 nM | clearance [7]: 72 mL/min/kg | GI50 (P12-Ichikawa): 1.9 nM

GI50 (PC-3): 5 nM | GI50 (A549): 20.6 nM | GI50 (HCT-116 [1]): 5.5 nM | GI50 (DLD-1): 10.4 nM
SMILES: COc1c(C)c(OC)c2c(c1O)[C@@H]1[C@@H]3Cc4c(OC)c(C)c(OC)c(O)c4[C@H](CNC(=O)c4cc5cc(OC6CCOCC6)ccc5o4)N3[C@@H](O)[C@H](C2)N1C

GI50 (PC-3): 16.5 nM | GI50 (HCT-116 [1]): 17.3 nM | GI50 (DLD-1): 26.5 nM
SMILES: COC1=C(C)C(=O)C2=C(C1=O)[C@@H]1[C@@H]3CC4=C(C(=O)C(OC)=C(C)C4=O)[C@H](CNC(=O)c4cc5cc(OC6CCOCC6)ccc5o4)N3[C@@H](C#N)[C@H](C2)N1C

GI50 (PC-3): 11.7 nM | GI50 (A549): 57.5 nM | GI50 (HCT-116 [1]): 8.1 nM | GI50 (DLD-1): 22.4 nM
SMILES: COc1c(C)c(OC)c2c(c1O)[C@@H]1[C@@H]3Cc4c(OC)c(C)c(OC)c(O)c4[C@H](CNC(=O)c4cc5cc(OCCN6CCOCC6)ccc5o4)N3[C@@H](C#N)[C@H](C2)N1C

GI50 (HCT-116 [1]): 201 nM
SMILES: COc1c(C)c(OC)c2c(c1O)[C@@H]1[C@@H]3Cc4c(OC)c(C)c(OC)c(O)c4[C@H](CNC(=O)c4ccc(CNS(=O)(=O)c5cccc6c(N(C)C)cccc56)cc4)N3[C@@H](C#N)[C@H](C2)N1C

GI50 (HCT-116 [1]): 5.5 nM
SMILES: COc1c(C)c(OC)c2c(c1O)[C@@H]1[C@@H]3Cc4c(OC)c(C)c(OC)c(O)c4[C@H](CNC(=O)c4cc5ccccc5o4)N3[C@@H](C#N)[C@H](C2)N1C

GI50 (PC-3): 2.7 nM | half-life [2]: 25 min | GI50 (A549): 18.9 nM | bioavailability [3]: 38% | Cmax [4]: 3700 nM | GI50 (HCT-116 [1]): 3.2 nM | half-life [5]: 3 min | GI50 (DLD-1): 8.3 nM | AUC [6]: 0.483 µM·h | clearance [7]: 45 mL/min/kg
SMILES: COc1c(C)c(OC)c2c(c1O)[C@@H]1[C@@H]3Cc4c(OC)c(C)c(OC)c(O)c4[C@H](CNC(=O)c4cc5cc(OC6CCOCC6)ccc5o4)N3[C@@H](C#N)[C@H](C2)N1C
Activity (Mus musculus [8]): Active | inhibition in vivo at 1.25 mg/kg (HCT-116 [9]): 68% | Activity (Mus musculus [10]): Active | inhibition in vivo at 2.5 mg/kg (HCT-116 [11]): 96%
